Read-outs that look alike come from different tables or passages of the source.
Experiments:
[1] = Plasma and cerebral concentrations of oseltamivir and OC after oral administration of OP; type: in vivo, C57BL/6 mice; conditions: OP 300 mg/kg p.o.; for AUC(0-t): C57BL/6, mouse, plasma, po, 300 mg/kg, read-out: AUC0–120 Plasma (converted); for mean brain-to-plasma ratio (BPR): mean AUCbrain / mean AUCplasma
Procedure: OP (300 mg/kg in 0.2 mL saline) was orally administered 4 h after the third injection of LPS. […] The brain tissue of mice was rapidly removed after the decapitation and rinsed in ice-cold PBS. Three to 9 mice were used at each sampling time point in each group.
Oseltamivir and OC levels in plasma and brain tissues were quantified by HPLC, as described in our previous study. Blood samples collected from the jugular vein were centrifuged to obtain plasma at 4°C (2,000 ×g, 15 min). Brain tissue samples were homogenized in 3.5 mL PBS/g tissue and centrifuged at 4°C (12,000 ×g, 10 min). Oseltamivir and OC were extracted from the resulting supernatant by solid-phase extraction (SPE) using Oasis MCX extraction cartridges (1 cc/30 mg, Waters, Milford, MA, USA) conditioned with 1 mL of methanol followed by 1 mL water. The supernatant sample (1 mL) was drawn through the cartridge and the cartridge was washed with 1 mL of 2% formic acid/water, followed by methanol and 0.005% ammonium hydroxide/methanol. The analytes were eluted with 3 mL of 5% ammonium hydroxide/methanol and evaporated to dryness under nitrogen at 40°C.
The HPLC system consisted of a pump (LC-10ADvp, Shimadzu Corp., Kyoto, Japan), degasser (DGU-12A, Shimadzu Corp.), column (Zorbax SB-CN 5 μm particle size, 4.6 × 250 mm, Agilent Technologies, CA, USA), column oven (CTO-10A, Shimadzu Corp.), and UV absorbance detector (SPD-10AV, Shimadzu Corp.). […] The column temperature was 50°C and the detector was operated at absorbance wavelength of 215 nm.

[2] = system: multidrug resistance protein (MRP) 4; set-up: method as in PMID 19029202; conditions: cited from earlier work
[3] = system: organic anion transporter (OAT) 3; set-up: method as in PMID 19029202; conditions: cited from earlier work
P-glycoprotein (P-gp) = system: P-glycoprotein (P-gp); set-up: method as in PMID 19029202; conditions: cited from earlier work
[4] = set-up: method as in PMID 23881998; conditions: FDA Adverse Event Reporting System 1999 to 2011; cited from earlier work
[5] = Kak group (LPS + kakkonto 125 mg/kg p.o.)
[6] = Mao group (LPS + maoto 125 mg/kg p.o.)

SMILES | AUC(0-t) ([1]; Con group (LPS + saline p.o.)) [ng·h/mL] | AUC(0-t) [1, 5] [ng·h/mL] | AUC(0-t) [1, 6] [ng·h/mL] | AUC0–120 Brain ([1]; Con group (LPS + saline p.o.)) [min·μg/g brain] | mean brain-to-plasma ratio (BPR) ([1]; Con group) [μL/g brain] | AUC0–120 Brain [1, 5] [min·μg/g brain] | mean brain-to-plasma ratio (BPR) ([1]; Kak group) [μL/g brain] | AUC0–120 Brain [1, 6] [min·μg/g brain] | mean brain-to-plasma ratio (BPR) ([1]; Mao group) [μL/g brain] | substrate for MRP4 [2] | substrate for OAT3 [3] | substrate for efflux transporter P-gp (P-glycoprotein (P-gp)) | odds ratio, abnormal behavior [4] | odds ratio, delirium [4]
CCC(CC)O[C@@H]1C=C(C(=O)O)C[C@H](N)[C@H]1NC(C)=O [OC, oseltamivir carboxylate] | 12700 | 20000 | 14300 | 16.06 | 21.08 | 5.98 | 4.98 | 18.95 | 22.12 | substrate | substrate |  |  | 
CCOC(=O)C1=C[C@@H](OC(CC)CC)[C@H](NC(C)=O)[C@@H](N)C1 [Oseltamivir, oseltamivir] | 32500 | 84400 | 62500 | 79.35 | 40.70 | 200.21 | 39.52 | 119.92 | 31.98 |  |  | substrate |  | 
CCOC(=O)C1=C[C@@H](OC(CC)CC)[C@H](NC(C)=O)[C@@H](N)C1 [Tamiflu, Oseltamivir phosphate] |  |  |  |  |  |  |  |  |  |  |  |  | 29.35 | 13.50

— PMC4350872, “The Inhibitory Effect of Kakkonto, Japanese Traditional (Kampo) Medicine, on Brain Penetration of Oseltamivir Carboxylate in Mice with Reduced Blood-Brain Barrier Function” (Evidence-based Complementary and Alternative Medicine : eCAM, 2015)
